A melting point compilation (Tetko et al.; mined from patent text by program, amines drawn as free bases though some values may be those of a salt)

SMILES	melting point [°C]
COc1ccc2c(=O)n3c(cc2c1)S(=O)(=O)CCC3	256 to 257
O=C(O)c1ccc(NCCOc2ccc(Br)cc2)cc1	190 to 192
CCCC1=C(C#N)C(c2cccnc2)c2c[nH]nc2N1 (configuration not stated)	201
C[Si](C)(C)ON1C(=O)CCC1=O	55 to 57
N#Cc1ccc(C(=C2C3CC4CC(C3)CC2C4)c2nc[nH]n2)cc1	105
C#CCOc1cc(-c2ncnc(C(F)F)c2Cl)c(F)cc1Cl	93 to 95
CC(c1cccs1)N(O)C(N)=O (configuration not stated)	130
O=[N+]([O-])c1ccc(NN=Cc2ncc[nH]2)nc1	268 to 269
CCOC(=O)C1=C(C)NC(C)=C(C(=O)OCC)C1c1ccccc1/C=C/c1ccc(OC)cc1	179 to 181
Cc1cc(CC(=O)O)ccc1[N+](=O)[O-]	95
CC(C)Oc1ccc(CCCOc2cc(CCC(=O)O)n(C)n2)c(Oc2ncc(C(F)(F)F)cc2Cl)c1	88 to 89
COc1cc(C(=O)OCCCCBr)ccc1O	83 to 88
COc1ccc(-c2cc(C(C)(C)C)c(O)c(C(C)(C)C)c2)cc1	109 to 110
O=C1NC2CCCC1NC2=O	280 to 283
COC(=O)NN=Cc1cnc2ccccc2n1	242 to 244
Clc1nc(N2CCOCC2)nc(-n2cnc3ccccc32)n1	201 to 203
Nc1cc(F)c(-c2cccnc2)c(F)c1	141 to 142
COc1ccc2c(c1)cc(-c1nc(C)no1)n2-c1ccc(CNC(=O)C2(N)CC2)cc1	145 to 146
CCCNC(=O)c1ccc(Nc2nc(OCC3CCCCC3)c3nc[nH]c3n2)cc1	226 to 228
CC(C)C[C@H](NC(=O)[C@@H]1CCC(=O)N1C(=O)OCc1ccccc1)C(=O)OC(C)(C)C	130 to 131
N#Cc1ccc(N2C[C@H](O)C[C@@H]2CO)c2ccccc12	146 to 147
CCOC(=O)c1cccc(-c2cc3c(O)ncnc3[nH]2)c1	> 250
CNc1ccc(CCc2cc(OC)ccc2OC)cc1C(=O)OC	73
COc1ccc(C(O)CN)cc1OCc1ccccc1 (configuration not stated)	101 to 102
COc1cccc(C(=O)Nc2ccc3sc(C)nc3c2Cl)c1	177 to 179
CCNc1ncc2ccc(=O)n(-c3ccccc3)c2n1	193 to 195

SMILES	melting point [°C]
CN=C(NC#N)NCC(O)COc1cccc(CN2CCCCC2)c1 (configuration not stated)	45 to 47
COC(=O)c1cc(-c2cc(C)[nH]c2C)nn1C	63 to 65
Cc1cccc2c1C(=O)C1(CC1)S2	128
c1ccc2c(c1)N=C(N1CCNCC1)c1ccccc1S2	66 to 69
CS(=O)(=O)c1ccc(-c2c(-c3ccc(F)cc3)c(OCC(=O)c3ccccc3)nn2CC(=O)c2ccccc2)cc1	151 to 152
Cc1ccccc1C(=O)Nc1ccc(C(=O)N2CCCC(N(C)CC#N)c3ccccc32)cc1 (configuration not stated)	227 to 228
COc1cc(OCCN2CCCC2)c2c(=O)[nH]c(-c3cc(C)nc(C)c3)nc2c1	190 to 191
Cc1cc(C(=O)O)c(C)c2c1S(=O)(=O)CCC2(C)C	209
O=S(=O)(c1ccc(Cl)cc1)n1ccc2cc(F)ccc21	108 to 109
NN=C(N)Nc1c(Cl)cccc1Cl	281
CC(C)CCCC(C)C1CCC2C3CC=C4CC(NC(=O)CCN(C)C(=O)OC5c6ccccc6-c6ccccc65)CCC4(C)C3CCC12C (configuration not stated)	124 to 128
COC(=O)c1c(Cn2cncn2)nc2cc(OC)c(OC)cc2c1-c1ccc(OC)c(OC)c1	218 to 220
CN1C(C(=O)NC2N=C3CCSC=C3S2)=C(O)c2ccc3ccccc3c2S1(=O)=O (configuration not stated)	255
c1csc(C2=NCC3COCCN3c3cc4c(cc32)OCCO4)c1 (configuration not stated)	192 to 194
O=C(Oc1cccc(C(F)(F)F)c1)n1c2c(c(=O)n(C3CCCCO3)c1=O)CCC2 (configuration not stated)	130
C=CCOC(=O)CCCCCCCCCCCCCCCCC	35 to 36
NS(=O)(=O)c1ccc(-c2noc(-c3cnc4ccc(-c5ccc(C(F)(F)F)cc5)cn34)n2)s1	280
CCN1C(=O)CN(C(=O)OCc2ccccc2)Cc2cc(OC)c([N+](=O)[O-])cc21	55 to 56
CN1C(=O)CC[C@]2(C)c3ccc(-c4cccc5ncccc45)cc3CC[C@@H]12	100 to 104
Cn1cnc(COc2nn3c(-c4ccccc4)nnc3cc2-c2ccccc2)n1	229 to 233
CC(C#CCOc1cccc(Oc2ccccn2)c1)N(O)C(N)=O (configuration not stated)	117 to 119
CCOC(=O)c1cnc2nn(C)cc2c1NC(C)C	168 to 170
CCCc1n[nH]c(CCC)n1	69 to 70
CCCOC(=O)C1=C(N)NC(C)=C(C(=O)OC(C)C)C1c1cccc([N+](=O)[O-])c1 (configuration not stated)	199
CN(O)C(=O)Nc1ccc([N+](=O)[O-])c(C(F)(F)F)c1	129 to 130
CCOC(=O)c1ncn2c1[C@@H]1CCCN1C(=O)c1cc(F)ccc1-2	194 to 195
